Entries after “also recorded” stand apart in the source; their conditions may differ.
Experiments:
[1] = target: T1, acetylcholinesterase (Homo sapiens, UniProt P22303); assay type: biochemical
[2] = target: T1, acetylcholinesterase; assay: Acetylcholinesterase assay with malaoxon in complex samples (apple juice, whole milk, soil) using GEMBE; assay type: biochemical; settings: for LOD in filtered apple juice: filtered apple juice (10× dilution); for LOD in soil: soil added as a slurry to the sample reservoir; for LOD in whole milk: whole milk (10× dilution)
Protocol: (§1) Assay Conditions in Apple Juice. A running buffer was prepared consisting of 4-(2-hydroxyethyl)-1-piperazineethanesulfonic acid, i.e. HEPES, at a concentration of ˜100 mM and 2-[Bis(2-hydroxyethyl)amino]-2-(hydroxymethyl)-1,3-propanediol, i.e. BIS-TRIS, at a concentration of ˜100 mM. The running buffer was prepared at pH ˜7.1. EOTrol™ HR (Target Discovery, Palo Alto, Calif.) was added to the run buffer as a dynamic coating to reverse the direction of EOF at a concentration of 1% (by volume).
(§2) Prior to reaction, the surface of a polyoxymethylene sample reservoir (Delrin, DuPont, Wilmington, Del.) was passivated with bovine serum albumin (˜2 mg/mL). A sample containing malaoxon (˜1 mM) in filtered apple juice (10× dilution) was added to the sample reservoir. Acetylcholine (˜500 μM) and acetylcholinesterase (˜10.4 nM) were added to the sample reservoir and were allowed to incubate for ˜5 min.
as §1, with “Whole Milk.” for “Apple Juice.”
as §2, with “(2” for “(˜2”, “whole milk (4% milk fat, Giant Food) at a dilution of 10×” for “filtered apple juice (10× dilution)”, “minutes.” for “min.”
as §1, with “Soil.” for “Apple Juice.”
Prior to reaction, the surface of a polyoxymethylene sample reservoir (Delrin, DuPont, Wilmington, Del.) was passivated with bovine serum albumin (2 mg/mL). A sample containing malaoxon (˜1 mM) in soil was added as a slurry to the sample reservoir. Acetylcholine (˜500 μM) and acetylcholinesterase (˜10.4 nM) were added to the sample reservoir and were allowed to incubate for ˜5 min.
Separation of Acetylcholine and Choline Using Gradient Elution Moving Boundary Electrophoresis. The reaction mixtures were separately introduced into the inlet end of the separation channel of a GEMBE device, wherein a voltage of ˜−2000V was applied on the waste chamber. During the GEMBE separation, the pressure applied to the run buffer reservoir was varied from about 6,000 Pa to about −8,000 Pa at a rate of −300 Pa/s. The concentration of choline was detected and quantified.

[3] = acetylcholine ~500 μM, acetylcholinesterase ~10.4 nM

T1 sequence (P22303 32-614): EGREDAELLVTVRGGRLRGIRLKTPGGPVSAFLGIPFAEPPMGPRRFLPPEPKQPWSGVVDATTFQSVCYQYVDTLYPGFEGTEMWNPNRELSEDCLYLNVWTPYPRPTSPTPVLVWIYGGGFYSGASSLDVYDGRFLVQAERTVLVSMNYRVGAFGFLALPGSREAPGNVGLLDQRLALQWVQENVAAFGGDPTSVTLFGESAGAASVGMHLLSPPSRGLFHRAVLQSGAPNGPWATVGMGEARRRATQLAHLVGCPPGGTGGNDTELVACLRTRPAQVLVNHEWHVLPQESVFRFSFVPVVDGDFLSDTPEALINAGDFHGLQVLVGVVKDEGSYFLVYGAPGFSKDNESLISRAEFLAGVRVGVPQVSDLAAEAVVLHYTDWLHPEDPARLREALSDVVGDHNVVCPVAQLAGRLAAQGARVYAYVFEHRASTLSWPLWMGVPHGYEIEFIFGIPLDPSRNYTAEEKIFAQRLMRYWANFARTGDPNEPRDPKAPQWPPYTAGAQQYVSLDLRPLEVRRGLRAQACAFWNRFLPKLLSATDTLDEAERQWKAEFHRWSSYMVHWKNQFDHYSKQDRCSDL

With `CCOC(=O)CC(SP(=O)(OC)OC)C(=O)OCC` (stereo not drawn) [malaoxon] the “concentration of choline formed (inhibition of acetylcholinesterase)” value [1] was “a decrease in the concentration of choline was observed; also recorded: the concentration of choline does not increase over time”, the “limit of detection (LOD)” value [1] was 87.7 ppb and the “limit of detection (LOD) from conversion rate of acetylcholine to choline” value [1] was about 279 nM. For the same compound, the “LOD in filtered apple juice” value [2] was 85.6 ppb, the “LOD in filtered apple juice” value [2, 3] was about 2.72e-07 M and the LOD in soil [2] was 1.5 ppm. The LOD in soil [2, 3] was about 4.93e-06 M, the “LOD in whole milk” value [2] was 82.0 ppb and the “LOD in whole milk” value [2, 3] was about 2.61e-07 M.

Reference: patent US11479804B1 (priority 2010, dated 2022)
